According to US7834040B2, “Isoxazolic derivative to relieve neuropathic pain” (Zambon S.p.A., priority 2004, dated 2010):
“Also recorded” adds a separate entry of the source.

How the values were obtained:
[1] = test system: neuropathic pain caused by the ligament of the rat's spinal nerve (SNL); assay: Mechanical allodinia in the SNL model of neuropathic pain (ligature of the spinal nerve); assay type: in vivo, male rats of Wistar strain
Excerpt: The effectiveness of the compound of formula (I) has been tested experimentally in two different models of neuropathic pain caused by chronic constrictive lesion of the sciatic nerve of the rat's hind leg (CCI) and by the ligament of the rat's spinal nerve (SNL), according to the procedure reported in the following experimental part. To a second group of male rats of Wistar strain a peripheral neuropathy has been induced by means of ligature of the spinal nerve according to the modified method described by Kim and Chung and which is constituted by the ligature of two (L5-L6) of the three spinal nerves which form the sciatic nerve (Pain 50:355-363, 1992). In order to evaluate the neuropathic pain, the development of mechanical allodinia was measured by calculating the average of the pain perception thresholds in the animals' legs in response to mechanical stimuli, following the method described by Chaplan et al. (Journal Neurosci. Method. 53:55-63, […]). In the first group of experiments the measurements have been carried out before and 14 days after the ligature of the […] (CCI). In the second group of experiments the same parameter has been similarly evaluated before and 14 days after the ligature of the spinal nerve (SNL). In both groups, the mechanical allodinia threshold has been measured before (pre-treatment) and 0.5, 1, 2, 4 and 6 hours after treatment by oral route with the compound of formula (I) at doses of 3, 30 and 300 mg/kg.

[2] = test system: neuropathic pain caused by chronic constrictive lesion of the sciatic nerve of the rat's hind leg (CCI); assay: Mechanical allodinia in the CCI model of neuropathic pain (chronic constrictive lesion of the sciatic nerve); assay type: in vivo, male rats of Wistar strain
Excerpt: The effectiveness of the compound of formula (I) has been tested experimentally in two different models of neuropathic pain caused by chronic constrictive lesion of the sciatic nerve of the rat's hind leg (CCI) and by the ligament of the rat's spinal nerve (SNL), according to the procedure reported in the following experimental part. To a group of male rats of Wistar strain a peripheral neuropathy has been induced by means of ligature of the sciatic nerve (CCI) according to the Bennet and Xie model (Pain 33:87-107, 1988). In order to evaluate the neuropathic pain, the development of mechanical allodinia was measured by calculating the average of the pain perception thresholds in the animals' legs in response to mechanical stimuli, following the method described by Chaplan et al. (Journal Neurosci. Method. 53:55-63, […]). In the first group of experiments the measurements have been carried out before and 14 days after the ligature of the […] (CCI). In the second group of experiments the same parameter has been similarly evaluated before and 14 days after the ligature of the spinal nerve (SNL). In both groups, the mechanical allodinia threshold has been measured before (pre-treatment) and 0.5, 1, 2, 4 and 6 hours after treatment by oral route with the compound of formula (I) at doses of 3, 30 and 300 mg/kg.

[3] = test system: neuropathic pain; conditions: Rashid et al., J. Pharmacol. Exp. Ther. 303:226-231, 2002; cited from earlier work
[4] = oral route, 3, 30 and 300 mg/kg, 0.5-6 hours after treatment, 14 days after ligature

Cc1cc(C(=O)NCCCC(=O)O)on1 [compound of formula (I)]
dose from which the antiallodinic effect is statistically significative ([1]; oral route): ≥ 3 mg/kg | time after treatment up to which the antiallodinic effect is detected ([1]; oral route): up to 6 hours | mechanical allodinia (pain perception threshold to mechanical stimuli) [1, 4]: reduced in a dose-depending way the mechanical allodinia; also recorded: marked reduction in the neuropathic allodinia | dose from which the antiallodinic effect is statistically significative ([2]; oral route): ≥ 3 mg/kg | time after treatment up to which the antiallodinic effect is detected ([2]; oral route): up to 6 hours | mechanical allodinia (pain perception threshold to mechanical stimuli) [2, 4]: reduced in a dose-depending way the mechanical allodinia; also recorded: marked reduction in the neuropathic allodinia

CC[C@H](C(N)=O)N1CCCC1=O [levitiracetam]
analgesic effect with respect to the neuropathic pain [3]: do not produce significant analgesic effects

Cc1cccc(C)c1NC(=O)CN1CCCC1=O [nefiracetam]
analgesic effect with respect to the neuropathic pain [3]: powerful analgesic effect

NC(=O)CN1CC(O)CC1=O (stereo not shown) [oxiracetam]
analgesic effect with respect to the neuropathic pain [3]: do not produce significant analgesic effects

NC(=O)CN1CCCC1=O [piracetam]
analgesic effect with respect to the neuropathic pain [3]: do not produce significant analgesic effects
